Data on two compounds can be found in US20240425938A1, “COMPOSITIONS AND METHODS FOR CHAR[…] FREQUENCY MUTATIONS” (The Broad Institute, Inc., priority 2022, published 2024).

The test system of this test is P. aeruginosa isolates. The format is cell-based, Pseudomonas aeruginosa.

Each structure is given as a SMILES string.

On to `C[C@@H](O)[C@H]1C(=O)N2C(C(=O)O)=C(S[C@@H]3CN[C@H](C(=O)N(C)C)C3)[C@H](C)[C@H]12` [meropenem], for which the “Antibiotic resistance profile of isolates” value is “resistance”. As to `CC(C)(O/N=C(\C(=O)N[C@@H]1C(=O)N2C(C(=O)[O-])=C(C[n+]3ccccc3)CS[C@H]12)c1csc(N)n1)C(=O)O` [ceftazidime], the “Antibiotic resistance profile of isolates” value is recorded as “resistance”.
